target: FAS (Homo sapiens, UniProt P49327); test: FAS assay (Assay #1: residual NADPH detection, or Assay #2: CoA detection with thio-reactive coumarin dye); assay type: biochemical; settings: average IC50, each compound tested two or more times; FAS activity measured through one of the two assays
Description: FAS Activity was Measured Through One of the Two Following Assays.
Inhibition of FAS activity can be measured based on the detection of residual NADPH substrate after the FAS assay is quenched. This assay is run as a 10 μL endpoint assay in 384-well format, where the reaction contains 20 μM malonyl-CoA, 2 μM acetyl-CoA, 30 μM NADPH and 40 nM FAS in 50 mM sodium phosphate, pH 7.0. The assay is run by sequentially dispensing 5 ul of a malonyl-CoA solution, then enzyme solution (containing the acetyl-CoA, and NADPH) into a black, low volume assay plate (Greiner 784076) pre-dispensed with […] compound solutions in DMSO. The reaction is incubated at ambient temperature for 60 minutes, then quenched with 5 μL of a developing solution composed of 90 μM resazurin, 0.3 IU/ml diaphorase in 50 mM sodium phosphate, pH 7.0. The developed reaction is read on a Molecular Devices Analyst or Acquest (or equivalent) plate reader using a 530 nm excitation wavelength filter, a 580 nm emission filter, and 561 nm dichroic filter. The test compounds are prepared in neat DMSO at a concentration of 10 mM. For inhibition curves, compounds are diluted using a three fold serial dilution and tested at 11 concentrations (e.g. 25 μM-0.42 nM). Curves are analysed using ActivityBase and XLfit, and results are expressed as pIC50 values.
Inhibition of FAS can also be quantified based on the detection of the CoA products with a thio-reactive coumarin dye. This assay is run as a 10 μL endpoint assay in 384-well format, where the reaction contains 20 μM malonyl-CoA, 20 μM acetyl-CoA, 40 μM NADPH and 2 nM FAS in 50 mM sodium phosphate, pH 7.0, and 0.04% Tween-20. The assay is run by adding 5 μL enzyme solution to a black, low volume assay plate (Greiner 784076) pre-dispensed with 100 nl compound solutions in DMSO. After 30 minutes, 5 μL substrate is added, and the reaction incubated at ambient temperature for an additional 60 minutes. The reaction is then quenched with 10 μL of 6M guanidine-HCl containing 50 μM CPM (7-diethylamino-3-(4′-maleimidylphenyl)-4-methylcoumarin (CPM; thio-reactive dye), and incubated for 30 minutes. The plate is read on an Envision (PerkinElmer) or equivalent plate reader using a 380 nm excitation wavelength filter, and a 486 nm emission filter. Data fitting and compound preparations are done as described above.

Chain of FAS (P49327 whole entry): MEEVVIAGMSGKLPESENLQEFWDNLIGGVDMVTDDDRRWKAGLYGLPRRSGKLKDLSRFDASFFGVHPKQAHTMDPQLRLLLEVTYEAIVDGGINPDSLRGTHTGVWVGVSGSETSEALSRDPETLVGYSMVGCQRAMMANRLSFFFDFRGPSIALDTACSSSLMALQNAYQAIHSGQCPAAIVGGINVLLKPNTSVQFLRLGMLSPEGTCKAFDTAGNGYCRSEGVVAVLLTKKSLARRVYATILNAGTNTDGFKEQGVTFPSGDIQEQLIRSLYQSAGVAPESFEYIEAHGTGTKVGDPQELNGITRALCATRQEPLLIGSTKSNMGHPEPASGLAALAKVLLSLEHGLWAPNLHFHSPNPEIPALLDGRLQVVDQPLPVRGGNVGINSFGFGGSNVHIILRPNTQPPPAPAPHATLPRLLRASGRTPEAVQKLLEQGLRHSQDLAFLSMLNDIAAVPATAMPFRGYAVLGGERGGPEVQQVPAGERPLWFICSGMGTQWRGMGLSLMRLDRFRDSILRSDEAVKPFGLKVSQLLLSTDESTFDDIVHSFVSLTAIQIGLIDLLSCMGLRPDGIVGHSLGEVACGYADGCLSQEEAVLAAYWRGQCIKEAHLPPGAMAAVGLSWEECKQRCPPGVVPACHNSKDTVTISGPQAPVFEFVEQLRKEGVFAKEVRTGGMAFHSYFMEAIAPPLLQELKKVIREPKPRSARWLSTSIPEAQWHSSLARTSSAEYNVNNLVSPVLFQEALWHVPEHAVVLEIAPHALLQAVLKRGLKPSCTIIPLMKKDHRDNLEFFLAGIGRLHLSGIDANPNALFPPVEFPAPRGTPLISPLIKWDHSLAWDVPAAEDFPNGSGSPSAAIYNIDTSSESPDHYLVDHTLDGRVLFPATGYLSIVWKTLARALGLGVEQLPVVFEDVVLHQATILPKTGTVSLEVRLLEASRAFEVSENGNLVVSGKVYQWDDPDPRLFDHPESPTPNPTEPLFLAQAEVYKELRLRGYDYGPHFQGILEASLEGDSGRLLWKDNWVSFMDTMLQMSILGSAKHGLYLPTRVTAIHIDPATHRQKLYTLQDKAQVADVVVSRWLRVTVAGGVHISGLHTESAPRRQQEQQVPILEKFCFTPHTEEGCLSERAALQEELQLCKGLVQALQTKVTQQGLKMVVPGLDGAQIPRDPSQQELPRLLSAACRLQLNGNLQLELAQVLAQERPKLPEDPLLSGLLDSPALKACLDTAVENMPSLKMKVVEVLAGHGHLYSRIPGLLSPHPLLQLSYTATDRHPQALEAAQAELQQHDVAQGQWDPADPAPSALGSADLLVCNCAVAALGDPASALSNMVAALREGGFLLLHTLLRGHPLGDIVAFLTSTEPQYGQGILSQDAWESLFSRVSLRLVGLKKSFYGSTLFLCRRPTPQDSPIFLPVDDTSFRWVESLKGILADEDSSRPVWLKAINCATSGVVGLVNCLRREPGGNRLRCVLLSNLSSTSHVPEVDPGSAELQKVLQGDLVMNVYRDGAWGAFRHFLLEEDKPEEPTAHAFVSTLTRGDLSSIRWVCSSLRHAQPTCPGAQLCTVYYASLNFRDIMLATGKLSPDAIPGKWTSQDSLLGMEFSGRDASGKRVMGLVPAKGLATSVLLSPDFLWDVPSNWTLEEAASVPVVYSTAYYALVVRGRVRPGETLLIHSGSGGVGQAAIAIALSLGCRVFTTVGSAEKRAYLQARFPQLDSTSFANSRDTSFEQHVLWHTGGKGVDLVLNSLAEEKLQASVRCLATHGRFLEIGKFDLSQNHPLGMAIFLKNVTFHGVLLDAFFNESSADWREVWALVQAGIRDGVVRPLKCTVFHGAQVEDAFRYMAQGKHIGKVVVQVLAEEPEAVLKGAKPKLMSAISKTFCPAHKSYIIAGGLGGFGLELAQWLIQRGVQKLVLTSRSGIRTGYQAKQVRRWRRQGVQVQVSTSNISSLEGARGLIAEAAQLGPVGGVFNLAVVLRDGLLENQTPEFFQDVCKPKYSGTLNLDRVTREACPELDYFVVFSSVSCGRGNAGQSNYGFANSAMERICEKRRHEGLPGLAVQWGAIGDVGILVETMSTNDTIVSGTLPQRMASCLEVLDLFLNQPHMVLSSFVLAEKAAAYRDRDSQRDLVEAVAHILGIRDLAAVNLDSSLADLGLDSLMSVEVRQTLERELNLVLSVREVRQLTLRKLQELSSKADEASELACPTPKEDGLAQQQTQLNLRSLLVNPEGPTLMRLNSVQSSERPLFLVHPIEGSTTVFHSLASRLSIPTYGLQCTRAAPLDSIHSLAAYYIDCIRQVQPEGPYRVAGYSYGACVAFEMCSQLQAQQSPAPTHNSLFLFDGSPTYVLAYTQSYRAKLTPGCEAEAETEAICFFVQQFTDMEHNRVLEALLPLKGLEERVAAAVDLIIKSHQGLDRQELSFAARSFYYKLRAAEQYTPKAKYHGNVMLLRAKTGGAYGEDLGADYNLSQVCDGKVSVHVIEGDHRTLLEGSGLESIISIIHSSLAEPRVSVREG

IC50	SMILES
200 nM	COc1ccc(-c2ccc(-c3nc4ccccc4c(=O)n3C[C@@H]3CCN(C(=O)C4CC4)C3)cc2)c(Cl)c1 [Example 24, 2-[2-chloro-4(methoxy)-4-bipheny]-3-{[(3R)-1-(cyclopropylcarbonyl)-3-pyrrolidinyl]methyl}-4(3H)-quinazolinone]
3160 nM	Cc1cc(=O)nc(C[C@@H]2CCN(C(=O)C3CC3)C2)n1-c1ccc(-c2ccc3occc3c2)cc1 [Example 49, 1-[4-(1-benzofuran-5-yl)phenyl]-2-{[(3S)-1-(cyclopropylcarbonyl)-3-pyrrolidinyl]methyl}-6-methyl-4(1H)-pyrimidinone]
10 nM	Cc1cc(=O)n(-c2ccc(-c3ccc4cc[nH]c4c3)cc2)c(C[C@@H]2CCN(C(=O)C3CC3)C2)n1 [Example 47, 2-{[(3S)-1-(cyclopropylcarbonyl)-3-pyrrolidinyl]methyl}-1-[4-(1H-indol-6-yl)phenyl]-6-methyl-4(3H)-pyrimidinone]
3.16 nM	Cc1cc(=O)n(C[C@@H]2CCN(C(=O)C3CC3)C2)c(-c2ccc(-c3ccc4[nH]ccc4c3)cc2)n1 [Example 26]
25.1 nM	Cc1nc2c(=O)n(C[C@@H]3CCN(C(=O)C4CC4)C3)c(-c3ccc(-c4ccc5[nH]ncc5c4)cc3)nc2o1 [Example 11, 6-{[(3R)-1-(cyclopropylcarbonyl)-3-pyrrolidinyl]methyl}-5-[4-(1H-indazol-5-yl)phenyl]-2-methyl[1,3]oxazolo[5,4-d]pyrimidin-7(6H)-one]
7.9 nM	Cn1ncc2c(=O)n(C[C@@H]3CCN(C(=O)C4CC4)C3)c(-c3ccc(-c4ccc5[nH]ccc5c4)cc3)nc21 [Example 1, 5-{[(3R)-1-(cyclopropylcarbonyl)-3-pyrrolidinyl]methyl}-6-[4-(1H-indol-5-yl)phenyl]-1-methyl-1,5-dihydro-4H-pyrazolo[3,4-d]pyrimidin-4-one]
